# Reference: the supplement of paper PMC12317010
# Where a name gives a salt, the structure may show the parent alone.
# Test: collision cross section in nitrogen (drift tube, single-field); higher = larger gas-phase ion size
# [1] = ion type: [M+H], ion source: ESI, ion mode: Positive
# [2] = ion type: [M-H], ion source: ESI, ion mode: Negative
# [3] = ion type: [M+H], ion source: APCI, ion mode: Positive
# [4] = ion type: [M+Na], ion source: ESI, ion mode: Positive
# [5] = ion type: [M+], ion source: APCI, ion mode: Positive
# 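Note: chemical standards at 10 µM analysed by drift tube IMS-QTOF MS in about 3.95 torr nitrogen, mean of duplicate injections differing ≤1%, mass error below 10 ppm.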
collision cross section in nitrogen [1] [Å²],collision cross section in nitrogen [2] [Å²],collision cross section in nitrogen [3] [Å²],collision cross section in nitrogen [4] [Å²],SMILES,further results
213.4,–,–,–,N[C@@H](Cc1cc(I)c(Oc2cc(I)c(O)c(I)c2)c(I)c1)C(=O)O [Levothyroxine],–
–,152,–,–,C=CC(C)(CCC=C(C)C)OC(C)=O (stereo unspecified) [Linalyl acetate],–
–,175.2,–,–,CCCCC/C=C\C/C=C\CCCCCCCC(=O)O [Linoleic acid],–
–,147.3,–,–,O=C(O)c1cc(C(=O)O)cc(S(=O)(=O)O)c1 [Lithium 3-carboxy-5-sulfobenzoate],–
–,203,–,–,C[C@H](CCC(=O)O)[C@H]1CC[C@H]2[C@@H]3CC[C@@H]4C[C@H](O)CC[C@]4(C)[C@H]3CC[C@]12C [Lithocholic acid],–
187.4,–,187.9,195.1,CCOC(=O)N1CCC(=C2c3ccc(Cl)cc3CCc3cccnc32)CC1 [Loratadine],–
201.2,203.4,201.6,204.9,CCCCc1nc(Cl)c(CO)n1Cc1ccc(-c2ccccc2-c2nnn[nH]2)cc1 [Losartan potassium],–
–,–,–,203.9,CC[C@H](C)C(=O)O[C@H]1C[C@@H](C)C=C2C=C[C@H](C)[C@H](CC[C@@H]3C[C@@H](O)CC(=O)O3)[C@H]21 [Lovastatin],–
230.9,236.4,231,234.1,CCCCc1ccc2c(n1)[C@@H](c1ccc(OC)cc1C[C@H](C)C(=O)O)[C@H](C(=O)O)[C@H]2c1ccc2c(c1)OCO2 [MK-547],–
243.4,247.7,243.1,241.9,CCn1nc(Cc2ccccc2)cc1C1CCN(C[C@H]2C[C@H](N(C)[C@@H](C(=O)O)C(C)C)C[C@@H]2c2cccc(F)c2)CC1 [MK-578],–
214.6,207.8,–,219.6,CO[C@@H]1COCC[C@@H]1N[C@@H]1CC[C@@](C(=O)N2CCc3ncc(C(F)(F)F)cc3C2)(C(C)C)C1 [MK-812],–
187.7,198.9,187.8,191.4,Fc1ccccc1[C@@H](F)CO[C@H]1CC[C@H](Nc2[nH]cnc3nncc2-3)CC1 [MK-968],–
–,–,–,–,CN(C)c1ccc(C(=C2C=CC(=[N+](C)C)C=C2)c2ccccc2)cc1 [Malachite green],"collision cross section in nitrogen (ion source: APCI, ion mode: Positive, ion type: [M]+ (permanent cation)): 188.5 Å²; collision cross section in nitrogen (ion source: ESI, ion mode: Positive, ion type: [M]+ (permanent cation)): 188.9 Å²"
–,116.9,–,–,O=C(O)CC(O)C(=O)O (stereo unspecified) [Malic acid],–
–,–,119.5,–,Cc1occc(=O)c1O [Maltol],–
164.3,–,164.1,–,CNCCCC12CCC(c3ccccc31)c1ccccc12 [Maprotiline hydrochloride],–
–,–,–,212.7,CC(=O)O[C@]1(C(C)=O)CC[C@H]2[C@@H]3C[C@H](C)C4=CC(=O)CC[C@]4(C)[C@H]3CC[C@@]21C [Medroxyprogesterone acetate],–
–,160.9,–,–,Cc1cccc(Nc2ccccc2C(=O)O)c1C [Mefenamic acid],collision cross section in nitrogen [5]: 152.3 Å²
–,–,–,194.8,CCOC(=O)C1=NN(c2ccc(Cl)cc2Cl)C(C)(C(=O)OCC)C1 (stereo unspecified) [Mefenpyr-diethyl],–
153.3,156,153.7,156.9,COc1ccc2[nH]cc(CCNC(C)=O)c2c1 [Melatonin],–
200.3,–,201.5,–,C=C1C[C@H]2[C@@H]3C=C(C)C4=CC(=O)CC[C@]4(C)[C@H]3CC[C@]2(C)[C@@]1(OC(C)=O)C(C)=O [Melengestrol acetate],–

collision cross section in nitrogen [1] [Å²],collision cross section in nitrogen [2] [Å²],collision cross section in nitrogen [3] [Å²],collision cross section in nitrogen [4] [Å²],SMILES,further results
178.5,177.7,179.2,184.2,Cc1cnc(NC(=O)C2=C(O)c3ccccc3S(=O)(=O)N2C)s1 [Meloxicam],–
212.4,–,–,220.1,N#Cc1ccc(CC(=NNC(=O)Nc2ccc(OC(F)(F)F)cc2)c2cccc(C(F)(F)F)c2)cc1 [Metaflumizone],–
–,–,–,152.3,Cc1cc(C)cc(OCC2CNC(=O)O2)c1 (stereo unspecified) [Metaxalone],–
125.7,–,125.1,–,CN(C)C(=N)NC(=N)N [Metformin],–
157.8,–,–,160.3,CN(C)CCN(Cc1cccs1)c1ccccn1 [Methapyrilene fumarate],–
157.6,–,157.6,160.1,CN(C)CCN(Cc1cccs1)c1ccccn1 [Methapyrilene hydrochloride],–
153.3,–,152.5,–,Cc1oc(C)c(C(=O)Nc2ccccc2)c1C [Methfuroxam],–
118.1,–,116.9,–,Cn1cc[nH]c1=S [Methimazole],–
143.3,147.1,143.1,–,Cc1cccc(NC(=S)N(C)C)c1 [Methiuron],–
–,–,–,154.6,COc1ccccc1OCC(O)COC(N)=O (stereo unspecified) [Methocarbamol],–
–,178.7,–,176.2,"COC(=O)CCc1cc(C(C)(C)C)c(O)c(C(C)(C)C)c1 [Methyl 3,5-bis(tert-butyl)-4-hydroxyhydrocinnamate]",–
–,141.1,–,148.5,COC(=O)c1sccc1S(N)(=O)=O [Methyl 3-sulfamoylthiophene-2-carboxylate],–
–,–,–,194.2,CCCCCCC(O)CCCCCCCCCCC(=O)OC (stereo unspecified) [Methyl 12-hydroxyoctadecanoate],–
–,158.5,–,–,CCCCCCCCCCCC(=O)OC [Methyl dodecanoate],–
–,245.2,–,232.5,COc1ccc([C@@H]2CC(=O)c3c(O)cc(O[C@@H]4O[C@H](CO[C@@H]5O[C@@H](C)[C@H](O)[C@@H](O)[C@H]5O)[C@@H](O)[C@H](O)[C@H]4O)cc3O2)cc1OC [Methyl hesperidin],–
–,173.6,–,–,CCCCCCCCCCCCCCCC(=O)OC [Methyl hexadecanoate],–
–,–,126.6,–,COC(=O)c1cccnc1 [Methyl nicotinate],–
–,146.7,–,–,CCCCCCCC(=O)OC [Methyl octanoate],–
163,175.2,163.1,179.2,CN(C)c1ccc(/N=N/c2ccccc2C(=O)O)cc1 [Methyl red],–
149.6,–,–,–,C[C@](N)(Cc1ccc(O)c(O)c1)C(=O)O [Methyldopa sesquihydrate],–
–,155.8,–,–,CCC(=O)/C=C/C1C(C)=CCCC1(C)C (stereo unspecified) [Methylionone],–

SMILES,collision cross section in nitrogen [1] [Å²],collision cross section in nitrogen [2] [Å²],collision cross section in nitrogen [3] [Å²],collision cross section in nitrogen [4] [Å²],further results
CON(C)C(=O)Nc1ccc(Cl)c(Cl)c1 [Linuron],–,151.1,–,–,–
O=S(=O)(NS(=O)(=O)C(F)(F)F)C(F)(F)F [Lithium bis[(trifluoromethyl)sulfonyl]azanide],–,129.9,–,–,–
O=S(=O)(O)C(F)(F)C(F)(F)C(F)(F)C(F)(F)C(F)(F)C(F)(F)C(F)(F)C(F)(F)F [Lithium perfluorooctanesulfonate],–,168.3,–,–,–
O=C(NC(=O)c1c(F)cccc1F)Nc1cc(Cl)c(OC(F)(F)C(F)C(F)(F)F)cc1Cl (stereo unspecified) [Lufenuron],–,205.4,–,–,–
O=[N+]([O-])O [Magnesium dinitrate hexahydrate],–,104.1,–,–,–
CCOC(=O)CC(SP(=O)(OC)OC)C(=O)OCC (stereo unspecified) [Malaoxon],–,–,–,165.7,–
CCOC(=O)CC(SP(=S)(OC)OC)C(=O)OCC (stereo unspecified) [Malathion],–,–,–,172.2,–
O=c1ccc(=O)[nH][nH]1 [Maleic hydrazide],–,117.8,–,–,–
CC#Cc1cc(C)nc(Nc2ccccc2)n1 [Mepanipyrim],153.1,160.6,152.6,–,collision cross section in nitrogen [5]: 147.3 Å²
Cc1ccccc1C(=O)Nc1cccc(OC(C)C)c1 [Mepronil],169.4,172.6,169.9,180.1,–
COCC(=O)N(c1c(C)cccc1C)[C@H](C)C(=O)OC [Metalaxyl-M],160,–,160.5,168.8,–
COCC(=O)N(c1c(C)cccc1C)C(C)C(=O)OC (stereo unspecified) [Metalaxyl],160.8,–,160.5,169.4,–
Cc1nnc(-c2ccccc2)c(=O)n1N [Metamitron],145.2,–,144.9,–,–
CC1(C)CCC(Cc2ccc(Cl)cc2)C1(O)Cn1cncn1 (stereo unspecified) [Metconazole],169.1,–,169.3,176.1,–
CC1CN1P(=O)(N1CC1C)N1CC1C (stereo unspecified) [Metepa],143.2,–,142.5,159.9,–
CNC(=O)N(C)c1nc2ccccc2s1 [Methabenzthiazuron],144.7,–,144.2,–,–
COc1nn(CSP(=S)(OC)OC)c(=O)s1 [Methidathion],–,–,–,163.4,–
COc1cccc(C(=O)NN(C(=O)c2cc(C)cc(C)c2)C(C)(C)C)c1C [Methoxyfenozide],–,194.2,–,201.9,–
COC(=O)C1(O)c2ccccc2-c2ccccc21 [Methyl 9-hydroxy-9H-fluorene-9-carboxylate],–,150.1,–,–,–
COS(=O)(=O)c1ccccc1 [Methyl benzenesulphonate],–,135,–,–,–
COC(=O)Cc1ccccc1 [Methyl phenylacetate],–,131.4,–,–,–
